Patent US9629786B2, “Monoterpene derivatives of chalcone or dihydrochalcone and their use as depigmenting agents” (PIERRE FABRE DERMO-COSMETIQUE, priority 2011, dated 2017)

Key:
fungal tyrosinase = settings: monophenoloxidase activity on fungal tyrosinase; cited from earlier work
plasmodial = settings: cited from earlier work
cancer cell line (lung) = settings: cited from earlier work
[1] = system: murine melanoma cell line B16-F10; test: Inhibition of melanin synthesis, colorimetric assay on B16-F10; assay type: cell-based; settings: Mus musculus, B16-F10 cells
Text: Pharmacological Testing: Inhibition of Melanin Synthesis:
We have developed a test for measuring melanin synthesis by using a colorimetric assay on the murine melanoma cell line B16-F10. This assay enables to test the depigmenting power of active ingredients.

[2] = Stability of chalcone (cyclization to flavanone); assay type: physicochemical; settings: for stability (cyclization to flavanone): purified / pure form
Text: More preferably, ? is a double bond, R1=H and R2=OH, that is to say the extract according to the invention is enriched with gymnochalcone. […] In fact, cyclization of chalcones to flavanone, upon addition of a hydroxyl group on 1,4-position in the carbonyl group by a Michael type reaction, which brings about instability of the chalcones, is not observed in this case.
Thus preferably gymnochalcone will be used in the form of an extract of Helichrysum gymnocephalum.

Row | SMILES | IC50 [1] | stability (cyclization to flavanone) [2] | other results
1 | O=C(/C=C/c1ccccc1)c1c(O)cc(O)cc1O [2′,4′,6′-Trihydroxychalcone (II), 2′,4′,6′-Trihydroxychalcone] | – | – | IC50 (fungal tyrosinase): 120 µM
2 | COc1cc(O)c(C(=O)CCc2ccccc2)c(O)c1[C@H]1C=C(C)CC[C@@H]1C(C)C [(−)-Methyl-linderatin] | – | – | anti-plasmodial activity (plasmodial): anti-plasmodial activity
3 | CC1=C[C@H](c2c(O)cc(O)c(C(=O)CCc3ccccc3)c2O)[C@H](C(C)C)CC1 [(−)-linderatin] | – | – | cytotoxicity (cancer cell line (lung)): exhibited cytotoxicity
4 | OC[C@H]1O[C@@H](Oc2ccc(O)cc2)[C@H](O)[C@@H](O)[C@@H]1O [Arbutin, reference compound] | 158 µM | – | –
5 | O=c1cc(CO)occ1O [Kojic acid, reference compound] | 2400 µM | – | –

The next lines start with results.

Row | IC50 [1] | stability (cyclization to flavanone) [2] | SMILES | other results
6 | 17 µM | cyclization is observed | CC1=CC(c2c(O)cc(O)c(C(=O)/C=C/c3ccccc3)c2O)C(C(C)(C)O)CC1 (stereo not shown) [Gymnochalcone, gymnochalcone] | stability in time ([2]; in the extract of Helichrysum gymnocephalum): stable in time
7 | 31 µM | – | COc1ccc(O)cc1 [Hydroquinone monomethyl ether, reference compound] | –
8 | 5 µM | stable in such form | CC1=CC(c2c(O)cc(O)c(C(=O)CCc3ccccc3)c2O)C(C(C)C)CC1 (stereo not shown) [Linderatin, linderatin] | –
9 | 6 µM | stable in such form | COc1cc(O)c(C(=O)CCc2ccccc2)c(O)c1C1C=C(C)CCC1C(C)C (stereo not shown) [Methyllinderatin, methyllinderatin] | –
